Among the data in US20250197372A1 (priority 2020, published 2025) are IC50 values, retold here.

What all share (format): biochemical
Assay [1] concerns the target T1, recombinant alpha-glucosidase II (murine full-length glucosidase II, alpha and beta subunits, Glu 2) (Mus musculus, UniProt Q8BHN3).
T1 construct: made in house; host or cells: HEK-293T cells transduced with BacMam viruses (75% alpha, 25% beta); protein harvested from culture supernatant
The assay can be described thus: Alpha-glucosidase II assay (4-methylumbelliferyl-alpha-D-pyranoside substrate, fluorescence).

Assay [2] addresses recombinant human GAA (acid alpha-glucosidase) (Homo sapiens, UniProt P10253). The assay can be described thus: Acid alpha-glucosidase (GAA) assay (4-methylumbelliferyl-alpha-D-pyranoside substrate, fluorescence). In a few lines:
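IC50 from 4-PL curve fit of percent inhibition, based on fluorescence (365/440 nm) of released methylumbelliferone relative to uninhibited enzyme. Compound dilutions and human GAA incubated 60 min, 37 °C, before 20 min substrate reaction at 37 °C, quenched at pH 10.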

Assay [3] has as its target T2, recombinant human GBA (beta-glucocerebrosidase) (Homo sapiens, UniProt P04062).
T2 sequence (P04062 40-536): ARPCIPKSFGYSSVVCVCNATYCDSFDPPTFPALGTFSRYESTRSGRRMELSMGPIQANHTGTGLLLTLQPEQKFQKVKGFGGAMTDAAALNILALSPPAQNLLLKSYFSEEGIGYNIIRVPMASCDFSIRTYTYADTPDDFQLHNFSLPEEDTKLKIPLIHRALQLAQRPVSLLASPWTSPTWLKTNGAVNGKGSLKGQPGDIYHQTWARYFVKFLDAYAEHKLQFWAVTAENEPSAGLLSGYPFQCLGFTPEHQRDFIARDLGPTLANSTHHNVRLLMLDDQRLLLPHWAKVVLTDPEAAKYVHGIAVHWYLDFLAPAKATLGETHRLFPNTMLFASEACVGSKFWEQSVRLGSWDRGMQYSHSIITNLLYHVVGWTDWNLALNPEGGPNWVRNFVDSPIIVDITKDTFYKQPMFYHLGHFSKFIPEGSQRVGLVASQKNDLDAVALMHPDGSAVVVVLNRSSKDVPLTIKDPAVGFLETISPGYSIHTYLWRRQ
Kind of assay: Beta-glucocerebrosidase (GBA, glucosylceramidase) assay (4-methylumbelliferyl-beta-D-pyranoside substrate, fluorescence). In a few lines:
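IC50 by four-parameter fit of percent inhibition, with product fluorescence (365/440 nm) read after a glycine/NaOH pH 10 stop. Compound and commercial recombinant human enzyme were incubated 60 min at 37 °C before a further 60 min at 37 °C with 4-methylumbelliferyl-beta-D-pyranoside substrate.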

Assay [4] deals with rat maltase (partially purified alpha-glucosidase from intestinal rat powder). Kind of assay: Intestinal alpha-glucosidase assay, maltose substrate (Glucose GO Kit). In a few lines:
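First step: 60 min, 37 °C, compound with partially purified rat intestinal alpha-glucosidase. Next, maltose or sucrose for 30 min at 37 °C, ended at 90 °C for 5 min. Glucose quantified enzymatically; concentration–inhibition data fitted 4-PL for IC50.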

Assay [5] concerns the target rat sucrase (partially purified alpha-glucosidase from intestinal rat powder) (Rattus norvegicus, UniProt P23739). The assay can be described thus: Intestinal alpha-glucosidase assay, sucrose substrate (Glucose GO Kit). In a few lines:
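Partially purified alpha-glucosidase from rat intestinal powder was preincubated 60 min at 37 °C with serial compound dilutions, then given maltose or sucrose and incubated 30 min at 37 °C.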

The mark [6] stands for this setting: Glucosidase 2, read-out: Glu2 IC50.

Read-outs that look alike come from different tables or passages of the source. A value given as a limit tells only on which side of the number the result lay.

T1 sequence (O08795 15-521): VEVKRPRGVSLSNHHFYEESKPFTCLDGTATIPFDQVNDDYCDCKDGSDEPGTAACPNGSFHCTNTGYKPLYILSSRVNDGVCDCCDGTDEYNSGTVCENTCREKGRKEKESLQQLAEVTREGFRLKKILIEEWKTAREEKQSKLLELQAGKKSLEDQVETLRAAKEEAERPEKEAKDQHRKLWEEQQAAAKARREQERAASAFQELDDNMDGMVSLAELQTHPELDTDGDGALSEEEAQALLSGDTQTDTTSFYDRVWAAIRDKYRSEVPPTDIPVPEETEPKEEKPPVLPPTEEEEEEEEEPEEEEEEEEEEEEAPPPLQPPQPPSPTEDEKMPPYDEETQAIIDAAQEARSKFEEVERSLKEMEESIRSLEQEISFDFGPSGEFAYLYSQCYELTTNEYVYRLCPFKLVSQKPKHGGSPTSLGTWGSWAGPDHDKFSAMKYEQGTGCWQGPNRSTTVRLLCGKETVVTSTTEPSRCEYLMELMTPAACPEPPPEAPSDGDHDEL
T1 sequence (Q8BHN3 33-944): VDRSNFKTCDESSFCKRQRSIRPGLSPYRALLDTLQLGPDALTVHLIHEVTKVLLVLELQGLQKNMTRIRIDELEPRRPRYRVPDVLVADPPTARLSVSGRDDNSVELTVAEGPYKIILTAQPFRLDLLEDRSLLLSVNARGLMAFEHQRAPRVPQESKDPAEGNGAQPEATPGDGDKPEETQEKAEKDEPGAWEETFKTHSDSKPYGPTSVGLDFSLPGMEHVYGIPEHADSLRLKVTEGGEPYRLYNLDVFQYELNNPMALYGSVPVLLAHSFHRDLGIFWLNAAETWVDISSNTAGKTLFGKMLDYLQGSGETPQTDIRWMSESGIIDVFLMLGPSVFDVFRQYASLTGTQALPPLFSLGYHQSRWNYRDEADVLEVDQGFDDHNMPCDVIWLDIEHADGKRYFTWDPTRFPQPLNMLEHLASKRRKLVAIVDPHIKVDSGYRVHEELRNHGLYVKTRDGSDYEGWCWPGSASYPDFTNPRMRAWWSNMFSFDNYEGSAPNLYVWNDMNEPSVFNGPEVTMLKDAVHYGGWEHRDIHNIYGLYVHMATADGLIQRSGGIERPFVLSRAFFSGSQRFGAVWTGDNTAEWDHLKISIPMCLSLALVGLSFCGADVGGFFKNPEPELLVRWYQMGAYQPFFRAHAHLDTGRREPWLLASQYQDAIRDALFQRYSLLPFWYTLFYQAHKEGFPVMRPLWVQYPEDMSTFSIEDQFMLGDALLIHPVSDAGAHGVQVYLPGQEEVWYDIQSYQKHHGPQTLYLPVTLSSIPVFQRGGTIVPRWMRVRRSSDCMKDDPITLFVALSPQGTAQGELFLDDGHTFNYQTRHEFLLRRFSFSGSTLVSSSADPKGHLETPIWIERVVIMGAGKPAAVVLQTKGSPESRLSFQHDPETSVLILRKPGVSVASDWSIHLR
Chain of rat sucrase (partially purified alpha-glucosidase from intestinal rat powder) (P23739 whole entry): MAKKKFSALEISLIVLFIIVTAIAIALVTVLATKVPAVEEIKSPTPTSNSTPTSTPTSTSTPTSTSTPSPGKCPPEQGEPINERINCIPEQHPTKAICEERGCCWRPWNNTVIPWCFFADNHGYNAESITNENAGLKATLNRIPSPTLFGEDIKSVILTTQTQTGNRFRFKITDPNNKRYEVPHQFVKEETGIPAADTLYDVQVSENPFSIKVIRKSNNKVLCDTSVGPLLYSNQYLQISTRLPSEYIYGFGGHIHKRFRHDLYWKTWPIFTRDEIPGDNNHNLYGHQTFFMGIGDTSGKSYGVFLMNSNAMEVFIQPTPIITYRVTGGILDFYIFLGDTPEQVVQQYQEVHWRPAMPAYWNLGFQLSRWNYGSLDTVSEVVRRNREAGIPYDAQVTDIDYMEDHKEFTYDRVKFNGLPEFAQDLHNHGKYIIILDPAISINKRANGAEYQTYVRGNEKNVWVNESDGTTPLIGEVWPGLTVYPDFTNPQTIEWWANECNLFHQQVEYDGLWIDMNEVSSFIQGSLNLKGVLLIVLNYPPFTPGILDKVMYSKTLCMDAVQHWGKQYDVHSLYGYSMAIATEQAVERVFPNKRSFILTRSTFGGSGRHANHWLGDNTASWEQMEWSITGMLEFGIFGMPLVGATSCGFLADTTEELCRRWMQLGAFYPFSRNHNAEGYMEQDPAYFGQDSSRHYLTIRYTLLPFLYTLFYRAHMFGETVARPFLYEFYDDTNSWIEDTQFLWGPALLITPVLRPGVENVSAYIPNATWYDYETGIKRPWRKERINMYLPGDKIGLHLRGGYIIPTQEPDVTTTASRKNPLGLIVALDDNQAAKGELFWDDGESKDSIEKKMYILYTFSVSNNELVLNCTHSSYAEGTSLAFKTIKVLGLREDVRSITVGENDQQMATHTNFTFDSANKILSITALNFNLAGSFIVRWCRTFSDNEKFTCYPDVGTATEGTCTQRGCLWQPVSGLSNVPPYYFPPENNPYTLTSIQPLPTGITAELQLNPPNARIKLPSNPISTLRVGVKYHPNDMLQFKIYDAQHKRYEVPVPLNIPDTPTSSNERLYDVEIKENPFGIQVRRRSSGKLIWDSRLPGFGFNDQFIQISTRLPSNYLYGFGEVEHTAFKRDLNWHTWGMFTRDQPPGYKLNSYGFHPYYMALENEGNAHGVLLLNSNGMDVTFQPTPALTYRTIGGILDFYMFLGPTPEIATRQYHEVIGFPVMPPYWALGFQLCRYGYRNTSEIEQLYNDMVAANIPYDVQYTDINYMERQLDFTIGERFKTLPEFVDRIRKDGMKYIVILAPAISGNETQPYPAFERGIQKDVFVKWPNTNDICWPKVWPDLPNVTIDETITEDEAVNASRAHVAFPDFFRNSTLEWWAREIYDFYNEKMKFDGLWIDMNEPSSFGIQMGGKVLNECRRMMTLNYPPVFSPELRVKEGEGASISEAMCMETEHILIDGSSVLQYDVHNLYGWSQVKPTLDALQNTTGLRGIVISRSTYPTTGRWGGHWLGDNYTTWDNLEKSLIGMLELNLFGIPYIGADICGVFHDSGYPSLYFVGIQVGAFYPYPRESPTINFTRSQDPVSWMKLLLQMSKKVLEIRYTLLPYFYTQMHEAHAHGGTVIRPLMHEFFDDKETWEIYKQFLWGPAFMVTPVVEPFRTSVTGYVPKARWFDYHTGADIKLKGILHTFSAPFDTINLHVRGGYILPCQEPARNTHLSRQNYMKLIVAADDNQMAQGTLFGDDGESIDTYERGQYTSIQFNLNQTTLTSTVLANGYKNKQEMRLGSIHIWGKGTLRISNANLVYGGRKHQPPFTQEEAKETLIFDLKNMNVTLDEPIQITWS

Consider `OC[C@@H]1[C@@H](O)[C@H](O)[C@@H](O)CN1CCCCCCNc1cc(Cl)cc(-c2cnccn2)c1` [Compound 1196, (2R,3R,4R,5S)-1-(6-{[3-chloro-5-(pyrazin-2-yl)phenyl]amino}hexyl)-2-(hydroxymethyl)piperidine-3,4,5-triol], for which the IC50 is 2 nM in assay [1] (setting [6]); 10 nM in assay [2]; 773 nM in assay [3]; 2 nM in assay [4]; 175 nM in assay [5].
For the compound `COc1cc(NCCCCCCN2C[C@H](O)[C@@H](O)[C@H](O)[C@H]2CO)cc(-c2cnccn2)c1` [Compound 1197, (2R,3R,4R,5S)-2-(hydroxymethyl)-1-(6-{[3-methoxy-5-(pyrazin-2-yl)phenyl]amino}hexyl)piperidine-3,4,5-triol], the IC50 in assay [1] (setting [6]) is 1 nM; in assay [2], 37 nM; in assay [3] it was 2070 nM; in assay [4] it was 9 nM; in assay [5], 177 nM.
On the same counts, the results for `OC[C@@H]1[C@@H](O)[C@H](O)[C@@H](O)CN1CCCCCCNc1ccc(-c2cnccn2)cc1Cl` [Compound 1198, (2R,3R,4R,5S)-1-(6-{[2-chloro-4-(pyrazin-2-yl)phenyl]amino}hexyl)-2-(hydroxymethyl)piperidine-3,4,5-triol] are 17 nM, 47 nM, 2700 nM, under 1 nM and 1 nM.
On the same counts, the results for `COc1cc(-c2cnccn2)ccc1NCCCCCCN1C[C@H](O)[C@@H](O)[C@H](O)[C@H]1CO` [Compound 1199, (2R,3R,4R,5S)-2-(hydroxymethyl)-1-(6-{[2-methoxy-4-(pyrazin-2-yl)phenyl]amino}hexyl)piperidine-3,4,5-triol] are 12 nM, 43 nM, 3960 nM, 8 nM and 16 nM.
Regarding `[N-]=[N+]=Nc1ccc(NCCc2ccc(CCN3C[C@H](O)[C@@H](O)[C@H](O)[C@H]3CO)cc2)c([N+](=O)[O-])c1` [Compound 1200, (2R,3R,4R,5S)-1-[2-(4-{2-[(4-azido-2-nitrophenyl)amino]ethyl}phenyl)ethyl]-2-(hydroxymethyl)piperidine-3,4,5-triol], the concentration for half-maximal inhibition (IC50) in assay [1] (setting [6]) amounted to 6 nM; in assay [2], 1160 nM; in assay [3], 1450 nM; in assay [4] it was 81 nM; in assay [5] it was 746 nM.
For `OC[C@@H]1[C@@H](O)[C@H](O)[C@@H](O)CN1CCCCCCNc1ccc(-c2cccnn2)cc1Cl` [Compound 1202, (2R,3R,4R,5S)-1-(6-{[2-chloro-4-(pyridazin-3-yl)phenyl]amino}hexyl)-2-(hydroxymethyl)piperidine-3,4,5-triol], the IC50 in assay [1] (setting [6]) was under 1 nM; in assay [2], 39 nM; in assay [3] it was 3010 nM; in assay [4], under 1 nM; in assay [5] it was under 1 nM.
For the compound `OC[C@@H]1[C@@H](O)[C@H](O)[C@@H](O)CN1CCCCCCNc1ccc(-c2ncco2)cc1Cl` [Compound 1203, (2R,3R,4R,5S)-1-(6-{[2-chloro-4-(1,3-oxazol-2-yl)phenyl]amino}hexyl)-2-(hydroxymethyl)piperidine-3,4,5-triol], the IC50 in assay [1] (setting [6]) was under 1 nM; in assay [2] it was 40 nM; in assay [3] it was 787 nM; in assay [4] it was under 1 nM; in assay [5], 11 nM.
`COc1cc(-c2ncco2)ccc1NCCCCCCN1C[C@H](O)[C@@H](O)[C@H](O)[C@H]1CO` [Compound 1207, (2R,3R,4R,5S)-2-(hydroxymethyl)-1-(6-{[2-methoxy-4-(1,3-oxazol-2-yl)phenyl]amino}hexyl)piperidine-3,4,5-triol]: the 50% inhibitory concentration (IC50) in assay [1] (setting [6]) came out at 14 nM; in assay [2] it was 75 nM; in assay [3], 1680 nM; in assay [4], 7 nM; in assay [5], 71 nM.
With `[N-]=[N+]=Nc1ccc(NCC/C=C/CCN2C[C@H](O)[C@@H](O)[C@H](O)[C@H]2CO)c([N+](=O)[O-])c1` [Compound 1260, (2R,3R,4R,5S)-1-[(3E)-6-[(4-azido-2-nitrophenyl)amino]hex-3-en-1-yl]-2-(hydroxymethyl)piperidine-3,4,5-triol], the IC50 is 15 nM in assay [1]; 44 nM in assay [2]; 1560 nM in assay [3]; under 1 nM in assay [4]; 29 nM in assay [5].
Consider `O=[N+]([O-])c1cc(CCO)ccc1NCCCCCCN1C[C@H](O)[C@@H](O)[C@H](O)[C@H]1CO` [Compound 1292, (2R,3R,4R,5S)-1-(6-{[4-(2-hydroxyethyl)-2-nitrophenyl]amino}hexyl)-2-(hydroxymethyl)piperidine-3,4,5-triol], for which the IC50 in assay [1] (setting [6]) came out at 8.6 nM; in assay [2], 28 nM; in assay [3] it was 1600 nM; in assay [4], 11 nM; in assay [5], 40 nM.
On the same counts, the results for `CS(=O)(=O)Nc1ccc(NCCCCCCN2C[C@H](O)[C@@H](O)[C@H](O)[C@H]2CO)c([N+](=O)[O-])c1` [Compound 1300, N-[3-nitro-4-({6-[(2R,3R,4R,5S)-3,4,5-trihydroxy-2-(hydroxy-methyl)piperidin-1-yl]hexyl}amino)phenyl]methanesulfonamide] are 14 nM, 20 nM, 26 nM, under 10 nM and 52 nM.
Turning to `COCCc1ccc(CCCCCN2C[C@H](O)[C@@H](O)[C@H](O)[C@H]2CO)cc1` [Compound 1307, (2R,3R,4R,5S)-2-(hydroxymethyl)-1-{5-[4-(2-methoxyethyl)phenyl]pentyl}piperidine-3,4,5-triol], the IC50 in assay [1] (setting [6]) is 77 nM; in assay [2], 950 nM; in assay [3], 5000 nM; in assay [4], 32 nM; in assay [5], 387 nM.
As to `Cc1cc(-c2ccco2)ccc1NCc1ccc(CN2C[C@H](O)[C@@H](O)[C@H](O)[C@H]2CO)cc1` [Compound 1324, (2R,3R,4R,5S)-1-{[4-({[4-(furan-2-yl)-2-methylphenyl]amino}methyl)phenyl]methyl}-2-(hydroxymethyl)piperidine-3,4,5-triol], the IC50 in assay [1] (setting [6]) was 318 nM; in assay [2], 80 nM; in assay [3] it was 33700 nM; in assay [4] it was under 1 nM; in assay [5] it was under 1 nM.
In the case of `Cc1cc(NCc2cccc(CN3C[C@H](O)[C@@H](O)[C@H](O)[C@H]3CO)n2)cc(-c2ccc[nH]2)c1` [Compound 1335, (2R,3R,4R,5S)-2-(hydroxymethyl)-1-{[6-({[3-methyl-5-(1H-pyrrol-2-yl)phenyl]amino}methyl)pyridin-2-yl]methyl}piperidine-3,4,5-triol], the IC50 was over 100000 nM in assay [1]; 470 nM in assay [2]; 21500 nM in assay [3]; 231 nM in assay [4]; 321 nM in assay [5].
With `Cc1nc2cc(-c3ncccn3)ccc2n1CCCCCCN1C[C@H](O)[C@@H](O)[C@H](O)[C@H]1CO` [Compound 1339, (2R,3R,4R,5S)-2-(hydroxymethyl)-1-{6-[2-methyl-5-(pyrimidin-2-yl)-1H-1,3-benzodiazol-1-yl]hexyl}piperidine-3,4,5-triol], the IC50 in assay [1] (setting [6]) was determined as 194 nM; in assay [2], 240 nM; in assay [3], 626 nM; in assay [4], 14 nM; in assay [5], 49 nM.
